According to patent publication US20080267882A1, “Imaging compounds, methods of making imaging compounds, methods of imaging, therapeutic compounds, methods of making therapeutic compounds, and methods of therapy” (Stanford University, priority 2007, published 2008):

How the values were obtained:
[1] = mouse, in vivo
Method: A U87MG tumor mouse was intravenously injected with 3.7 MBq of ^18F-FPRGD2. At 1 h after injection, the mouse was sacrificed, the blood, urine, liver, kidneys, and the U87MG tumor were collected and metabolite analysis was carried out as previously reported (J Nucl Med 2006;47: 113-121 and J Nucl Med 2006;47:1172-1180, each of which is incorporated herein by reference for the corresponding discussion). In brief, blood sample was immediately centrifuged for 5 min at 13,200 rpm. Other tissues were homogenized and then centrifuged for 5 min at 13,200 rpm. The supernatant was each passed through a C18 Sep-Pak cartridge. The urine sample was directly diluted with 1 mL of PBS and passed through a C18 Sep-Pak cartridge. The cartridges were each washed with 2 mL of water and eluted with 2 mL of ACN containing 0.1% TFA. The ACN eluent was concentrated and injected onto the analytical HPLC. The eluent was collected with a fraction collector (0.5 min/fraction) and the radioactivity of each fraction was measured with the γ-counter.
The metabolic stability of ^18F-FPTA-RGD2 was evaluated in an athymic nude mouse bearing a U87MG tumor. Sixty min after intravenous injection of 2 MBq of ^18F-FPTA-RGD2, the mouse was sacrificed and relevant organs were harvested. The blood was collected and immediately centrifuged for 5 min at 13,200 rpm. Liver, kidneys and tumor were homogenized and then centrifuged for 5 min at 13,200 rpm. After removal of the supernatants, the pellets were washed with 1 mL PBS. For each sample, supernatants of both centrifugation steps of blood, liver, and kidneys were combined and passed through C18 Sep-Pak cartridges. The urine sample was directly diluted with 1 mL of PBS and passed through a C18 Sep-Pak cartridge. The cartridges were each washed with 2 mL of water and eluted with 2 mL of ACN containing 0.1% TFA. After evaporation of the solvent, the residues were redissolved in 1 mL PBS and were injected onto the analytical HPLC. The eluent was collected with a fraction collector (0.5 min/fraction) and the radioactivity of each fraction was measured with the γ-counter.

[2] = test system: rat myocardial infarction; assay: microPET imaging of rat myocardial infarction; format: in vivo; conditions: scan 1 h after injection
Description: Induction of MI was done as previously described by our laboratory. Adult female Sprague-Dawley rats (weight 150-200 g; Charles River Laboratories, Wilmington, Mass.) were used for this study. […] The anesthesia was then maintained with isoflurane (2%). MI was induced by ligation of the left anterior descending coronary artery 2 to 3 mm from the tip of the left auricle with a 7-0 polypropylene suture. […] In the sham operated animals, a suture was placed in the myocardium (without ligating the left coronary artery). Animals were anesthetized with isofluorane (2%) and injected with approximately 1 mCi (37 MBq) of ^64Cu-DOTA-[…]2) via the tail vein and allowed to recover. […] At the time of scanning, animals were anesthesized with isofluorane (2%) and prone positioned on the microPET Concorde R4 rodent model scanning gantry (Siemens A G, Malvern, Pa.). The scanner has a computer-controlled bed and 10.8-cm transaxial and 8-cm axial fields of view (FOV). […] It has no septa and operates exclusively in the 3-dimensional list mode. A 15 minute static acquisition was performed with the mid thorax in the center of the field of view (FOV), and images reconstructed using a filtered back projection algorithm.

[3] = test system: U87MG tumor-bearing mice; assay: in vivo; conditions: mouse
Outline: (§1)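 microPET of U87MG-bearing mice after tail-vein injection of about 3.7 MBq ^18F-labelled RGD tracer under isoflurane; 30-min dynamic scan from 1 min p.i. plus 5-min static scans at 1–3 h. Tumour ROIs on decay-corrected coronal images, OSEM reconstruction without attenuation or scatter correction, converted to %ID/g.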

[4] = test system: stroke rats (dMCAO); assay: microPET imaging of dMCAO stroke rats; format: in vivo, rat
Description: Anesthesia for Sprague-Dawley rats (290-350 g) was induced by 5% isoflurane and maintained by 2-3% isoflurane. A ventral midline incision was made and the two CCAs were isolated. Snares were placed around the CCAs and the animal was placed on its right side. A 2 cm vertical scalp incision was made midway between the left eye and ear. The temporalis muscle was bisected and a 2 mm burr hole was made at the junction of the zygomatic arch and squamous bone. The distal MCA was exposed and ligated above the rhinal fissure with a 10-0 suture. The CCA snares were tightened to occlude the CCAs for 2 h. In the permanent MCA occlusion model, both CCAs were then released, while the distal MCA remained occluded.

[5] = in vivo; conditions: female, athymic nude, mouse, total radioactivity
Method: All mice were sacrificed and dissected at 20 h post-injection (p.i.) of the tracer. Blood, U87MG tumor, major organs and tissues were collected and wet weighed. The radioactivity in the tissue was measured using a γ-counter (Packard). The results were presented as percentage injected dose per gram of tissue (% ID/g).

[6] = in vivo; conditions: female, athymic nude, mouse, iv, total radioactivity
Outline: as §1

[7] = in vivo; conditions: c-neu oncomouse (MMTV/c-neu transgenic), mouse, iv, total radioactivity
Method: All animal experiments were performed under a protocol approved by Stanford's Administrative Panel on Laboratory Animal Care. […] The c-neu oncomouse (Charles River Laboratories, Charles River, Canada) is a spontaneous tumor-bearing model that carries an activated c-neu oncogene driven by a mouse mammary tumor virus (MMTV) promoter (Cell 1988;54:105-115, which is incorporated herein by reference for the corresponding discussion). Transgenic mice uniformly expressing the MMTV/c-neu gene develop mammary adenocarcinomas between 4 and 8 months postpartum that involve the entire epithelium in each gland. […] Each mouse was tail-vein injected with about 3.7 MBq (100 μCi) of ^18[…]2 under isoflurane anesthesia. The 30-min dynamic scan (1×30 s, 4×1 min, 1×1.5 min, 4×2 min, 1×2.5 min, 4×3 min, total of 15 frames) was started 1 min after injection. Five min static PET images were also acquired at 1 h and 2 h post-injection (p.i.). The images were reconstructed by a 2-dimensional ordered-subsets expectation maximum (OSEM) algorithm and no correction was applied for attenuation or scatter. […] Animal procedures were performed according to a protocol approved by the Stanford University Institutional Animal Care and Use Committee. […] The c-neu oncomouse (Charles River Laboratories, Charles River, Canada) is a spontaneous tumor-bearing model that carries an activated c-neu oncogene driven by a mouse mammary tumor virus (MMTV) promoter (Cell. 1988;54:105-115, which is incorporated herein by reference for the corresponding discussion). Transgenic mice uniformly expressing the MMTV/c-neu gene develop mammary adenocarcinomas between 4 and 8 months postpartum that involve the entire epithelium in each gland. […] PET scans and image analysis were performed using a microPET R4 rodent model scanner (Siemens Medical Solutions) as previously reported. […] Five min static PET images were also acquired at 1, 2, and 3 h p.i. The images were reconstructed by 2-dimensional ordered-subsets expectation maximum (OSEM) algorithm. No attenuation or scatter correction was applied. […] The 5-min static PET scans was then acquired at 30 min and 1 h p.i. […] Animal procedures were performed according to a protocol approved by Stanford University Institutional Animal Care and Use Committee. […] Transgenic mice uniformly expressing the MMTV/c-neu gene develop mammary adenocarcinomas (4 to 8 months postpartum) that involve the entire epithelium in each gland. […] Five minute static scans were acquired at 30 min, 1 h, 2 h, 6 h, and 20 h p.i. […] The radioactivity concentration (accumulation) within a tumor was obtained from the maximum value within the multiple ROIs and then converted to % ID/g.

[8] = literature; cited from earlier work

defluoridation [1]	extraction efficiency (radioactivity in the supernatant) [1]	non-retained fraction (activity not trapped on C18 cartridges) [1]	residence time for kidneys [3]	tissue uptake at 20 h [5]	tissue uptake at 2 h ([6]; 10 mg/kg, U87MG tumor uptake with blocking)	tissue uptake at 6 h ([6]; 9.3 MBq, U87MG tumor uptake)	tissue uptake at 20 h ([6]; 9.3 MBq, U87MG tumor uptake)	tissue uptake at 0.5 h ([6]; U87MG tumor uptake)	tissue uptake at 1 h ([6]; U87MG tumor uptake)	tissue uptake at 2 h ([6]; U87MG tumor uptake)	tissue uptake at 20 h ([7]; 9.3 MBq)	tissue uptake at 1 h [7]	Compound	myocardial tracer uptake after MI induction [2]	microPET signal in wound and stroke lesion ([4]; day 1 after dMCAO)	microPET signal in wound and stroke lesion ([4]; day 9 after dMCAO)	log stability constant [8]
No defluoridation was observed	75-95%	less than 30%	0.016 h	–	–	–	–	–	–	–	–	–	^18F-FB-mini-PEG-E[c(RGDyK)]2 [^18F-FPRGD2]	significant increase in uptake	Both wound and the lesion were detectable at day 1	the signal in the lesion reflecting angiogenesis is remained	–
–	–	–	–	5 ± 0.7 %ID/g	2.2 ± 0.1 %ID/g	7.7 ± 1.6 %ID/g	6.4 ± 0.7 %ID/g	10.3 ± 1.6 %ID/g	9.6 ± 1.4 %ID/g	8.6 ± 1 %ID/g	3.6 ± 0.4 %ID/g	4.4 ± 0.9 %ID/g	N=C(N)NCCC[C@@H]1NC(=O)[C@H](CCCCNC(=O)CC[C@H](NC(=O)CC[C@H](NC(=O)CN2CCN(CC(=O)O)CCN(CC(=O)O)CCN(CC(=O)O)CC2)C(=O)N[C@@H](CCC(=O)NCCCC[C@@H]2NC(=O)[C@@H](Cc3ccc(O)cc3)NC(=O)[C@H](CC(=O)O)NC(=O)CNC(=O)[C@H](CCCNC(=N)N)NC2=O)C(=O)NCCCC[C@@H]2NC(=O)[C@@H](Cc3ccc(O)cc3)NC(=O)[C@H](CC(=O)O)NC(=O)CNC(=O)[C@H](CCCNC(=N)N)NC2=O)C(=O)NCCCC[C@@H]2NC(=O)[C@@H](Cc3ccc(O)cc3)NC(=O)[C@H](CC(=O)O)NC(=O)CNC(=O)[C@H](CCCNC(=N)N)NC2=O)NC(=O)[C@@H](Cc2ccc(O)cc2)NC(=O)[C@H](CC(=O)O)NC(=O)CNC1=O [^64Cu-DOTA-RGD tetramer, ^64Cu-DOTA-E{E[c(RGDyK)]2}2, metal not drawn]	occurs in areas supplied by the ligated coronary artery	–	–	–
–	–	–	–	–	–	–	–	–	–	–	–	–	O=C([O-])CN1CCN(CC(=O)[O-])CCN(CC(=O)[O-])CC1.[Ga+3] [Ga-NOTA]	–	–	–	30.98
